Assay results reported in patent US20230285374A1, “THERAPEUTIC METHODS USING VADADUSTAT” (Akebia Therapeutics, Inc., priority 2019, published 2023).

Test system: anemic DD-CKD patients with incident dialysis and limited ESA exposure
Test: Phase 3 Incident DD-CKD (Correction/Conversion) trial, vadadustat vs darbepoetin alfa
Assay type: in vivo, human
Conditions: for Ferritin, mean / Hepcidin, mean / TSAT, mean: Incident trial
Protocol: Two randomized Phase 3, open-label, sponsor-blind, active-controlled non-inferiority (NI) trials were conducted in anemic DD-CKD patients with incident dialysis and limited ESA exposure (Correction/Conversion trial) and with prevalent dialysis and established ESA treatment (Conversion trial). The primary safety endpoint was prespecified as the time to first major adverse cardiovascular event (MACE) (all-cause mortality, non-fatal MI, or non-fatal stroke) pooled across the two trials. Primary and key secondary efficacy endpoints were mean change in Hb from baseline [BL] to wks 24-36 and to wks 40-52 between two treatment arms, respectively.
Phase 3, randomized, open-label, active-controlled study of the efficacy and safety of vadadustat versus darbepoetin alfa for the maintenance treatment of anemia after the correction of hemoglobin (Hb) or conversion from current ESA therapy in subjects who have recently initiated dialysis treatment for DD-CKD. Following a Screening period of up to 8 weeks (56 days), subjects who met all inclusion and none of the exclusion criteria were randomized 1:1 to vadadustat or darbepoetin alfa.
Randomization were stratified by: • Geographic region (United States [US] versus European Union [EU] versus Rest of World [ROW]). • New York Heart Association congestive heart failure (CHF) Class 0 (no CHF) or I versus II or III. • Study entry hemoglobin (Hb) level (<9.5 or ≥9.5 g/dL).
Following randomization, there were 4 periods during the study: • Correction/Conversion Period (Weeks 0 to 23): initial period on study medication. • Maintenance Period (Weeks 24 to 52): period on study medication during which efficacy was assessed (primary evaluation period: Weeks 24 to 36; secondary evaluation period: Weeks 40 to 52). • Long-term Treatment Period (Weeks 53 to End of Treatment [EOT]): continued study medication to assess long-term safety. • Follow-up (EOT+4 weeks): post-treatment visit (either in person or via telephone) for safety.
Inclusion Criteria: Subjects met the following criteria: • ≥18 years of age. • Initiated chronic maintenance dialysis (either peritoneal or hemodialysis) for end-stage kidney disease within 16 weeks prior to Screening. • Mean screening hemoglobin (Hb) between 8.0 and 11.0 g/dL (inclusive), as determined by the average of 2 Hb values measured by the central laboratory during Screening. • Serum ferritin ≥100 ng/mL and transferrin saturation (TSAT) ≥20% at Screening. • Folate and vitamin B12 measurements lower limit of normal at Screening. • Understands the procedures and requirements of the study and provides written informed consent and authorization for protected health information disclosure.
Exclusion Criteria: Subjects were excluded if they met any of the following criteria: • Anemia due to a cause other than CKD or subjects with active bleeding or recent blood loss. • Subjects with sickle cell disease, myelodysplastic syndromes, bone marrow fibrosis, hematologic malignancy, myeloma, hemolytic anemia, thalassemia, or pure red cell aplasia. • Red blood cell (RBC) transfusion within 8 weeks prior to randomization. • Anticipated to recover adequate kidney function to no longer require dialysis. • Aspartate aminotransferase (AST)/serum glutamic oxaloacetic transaminase (SGOT), alanine aminotransferase (ALT)/serum glutamic pyruvic transaminase (SGPT), or total bilirubin >2.0×upper limit of normal (ULN) at or during Screening. […]

O=C(O)CNC(=O)c1ncc(-c2cccc(Cl)c2)cc1O [Compound 1, Vadadustat]
Ferritin, mean (Baseline): 469.72 ng/mL
Hepcidin, mean (Baseline): 122.43 ng/mL
TSAT, mean (Baseline): 31.32%
Ferritin, mean (Weeks 24-36): 495.73 ng/mL
Hepcidin, mean (Weeks 24-36): 96.05 ng/mL
TSAT, mean (Weeks 24-36): 31.65%
Ferritin, mean (Weeks 40-52): 555.47 ng/mL
Hepcidin, mean (Weeks 40-52): 95.73 ng/mL
TSAT, mean (Weeks 40-52): 33.11%
proportion of patients requiring RBC transfusions (weeks 24-36): 1.3%
proportion of patients with an average hemoglobin value within the geography-specific target range (weeks 24-36): 43.6%
mean (SEM) change from baseline in hemoglobin (weeks 24 to 36): 1.26 (0.11) g/dL
mean difference between groups (vadadustat vs darbepoetin alfa) in change from baseline in hemoglobin (weeks 24 to 36): −0.31 (0.11) g/dL
proportion of patients requiring RBC transfusions (weeks 40-52): 2.4%
proportion of patients with an average hemoglobin value within the geography-specific target range (weeks 40-52): 39.8%
mean (SEM) change from baseline in hemoglobin (weeks 40 to 52): 1.42 (0.132) g/dL
mean difference between groups (vadadustat vs darbepoetin alfa) in change from baseline in hemoglobin (weeks 40 to 52): −0.07 (0.13) g/dL
